Values of other authors as cited in EP0116853A1, “Pyridazinones, processes for preparing them, therapeutical compositions containing these compounds and their use” (BASF Aktiengesellschaft, priority 1983, dated 1984).

Details: in contrast to the corresponding 4,5-dihydro compound

CC(=O)Nc1ccc(-c2n[nH]c(=O)cc2C)cc1 [6-(p-Acetylamino-phenyl)-5-methyl-3(2H)-pyridazinon]
blutdrucksenkende Wirkung: keine blutdrucksenkende Wirkung
